Results from patent US20190247361A1, “OXYTOCIN ANTAGONIST DOSING REGIMENS FOR PROMOTING EMBRYO IMPLANTATION AND PREVENTING MISCARRIAGE” (ObsEva S.A., priority 2016, published 2019).

Experiments:
Assay type in all cases: in vitro ADME
CYP2C19 = CYP2C19 (Homo sapiens, UniProt P33261); experiment: metabolism by CYP2C19 isoform; settings: for Compound Remaining (% of compound present at t = 0 min): 5 μM
Experimental: (§1) At five time points over the course of a 45 minute experiment, the compounds were analyzed by LC-MS/MS. The percentage of each compound remaining at each time point, along with the metabolic half-lives of each compound in the presence of each cytochrome P450 isoform, are indicated in Tables 10-12, below.

CYP3A4 = CYP3A4 (Homo sapiens, UniProt P08684); experiment: metabolism by CYP3A4 isoform; settings: for Compound Remaining (% of compound present at t = 0 min): 5 μM
Sequence of CYP3A4 (P08684 whole entry, canonical isoform): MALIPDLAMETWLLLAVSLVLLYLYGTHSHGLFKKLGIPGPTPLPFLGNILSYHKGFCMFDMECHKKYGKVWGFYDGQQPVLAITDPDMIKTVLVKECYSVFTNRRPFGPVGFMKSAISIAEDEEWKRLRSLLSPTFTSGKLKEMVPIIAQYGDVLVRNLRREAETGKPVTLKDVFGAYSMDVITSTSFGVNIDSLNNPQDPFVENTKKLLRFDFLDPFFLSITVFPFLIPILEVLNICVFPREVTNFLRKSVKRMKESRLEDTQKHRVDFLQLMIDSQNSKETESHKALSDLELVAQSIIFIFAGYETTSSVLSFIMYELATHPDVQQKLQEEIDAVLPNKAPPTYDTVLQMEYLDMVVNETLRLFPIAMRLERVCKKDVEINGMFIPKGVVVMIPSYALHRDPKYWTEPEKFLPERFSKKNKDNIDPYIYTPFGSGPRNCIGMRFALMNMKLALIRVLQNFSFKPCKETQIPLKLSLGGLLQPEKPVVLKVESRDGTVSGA
Experimental: as §1

[1] = test system: cytochrome P450 in combination with UGT; experiment: microsomal stability, pooled liver microsomes, cytochrome P450 in combination with UGT; settings: 45 minute experiment
Experimental: (§2) At five time points over the course of a 45 minute experiment, the compounds were analyzed by liquid chromatography and tandem mass spectrometry (LC-MS/MS). Intrinsic clearance values (CLint) with standard error (SE CLint) and metabolic half-life (t1/2) were calculated and are indicated in Table 9, below.

cytochrome P450 = experiment: microsomal stability, pooled liver microsomes, cytochrome P450 alone; settings: 45 minute experiment
Experimental: as §2

CYP2D6 = CYP2D6 (Homo sapiens, UniProt P10635); experiment: metabolism by CYP2D6 isoform; settings: for Compound Remaining (% of compound present at t = 0 min): 5 μM
Sequence of CYP2D6 (P10635 whole entry, canonical isoform): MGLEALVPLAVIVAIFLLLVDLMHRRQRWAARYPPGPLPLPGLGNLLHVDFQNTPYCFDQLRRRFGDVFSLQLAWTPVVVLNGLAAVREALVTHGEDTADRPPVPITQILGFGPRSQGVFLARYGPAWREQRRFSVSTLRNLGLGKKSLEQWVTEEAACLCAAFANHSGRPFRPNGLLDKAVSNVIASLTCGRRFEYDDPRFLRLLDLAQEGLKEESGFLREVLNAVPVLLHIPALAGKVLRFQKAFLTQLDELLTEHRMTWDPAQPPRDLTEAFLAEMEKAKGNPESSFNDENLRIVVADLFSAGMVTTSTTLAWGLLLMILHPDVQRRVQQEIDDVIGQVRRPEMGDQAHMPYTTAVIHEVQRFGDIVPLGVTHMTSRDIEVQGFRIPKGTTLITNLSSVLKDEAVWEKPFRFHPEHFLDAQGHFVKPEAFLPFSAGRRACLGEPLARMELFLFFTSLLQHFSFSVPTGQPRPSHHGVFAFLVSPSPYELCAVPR
Experimental: as §1

Sequence of CYP2C19 (P33261 whole entry, canonical isoform): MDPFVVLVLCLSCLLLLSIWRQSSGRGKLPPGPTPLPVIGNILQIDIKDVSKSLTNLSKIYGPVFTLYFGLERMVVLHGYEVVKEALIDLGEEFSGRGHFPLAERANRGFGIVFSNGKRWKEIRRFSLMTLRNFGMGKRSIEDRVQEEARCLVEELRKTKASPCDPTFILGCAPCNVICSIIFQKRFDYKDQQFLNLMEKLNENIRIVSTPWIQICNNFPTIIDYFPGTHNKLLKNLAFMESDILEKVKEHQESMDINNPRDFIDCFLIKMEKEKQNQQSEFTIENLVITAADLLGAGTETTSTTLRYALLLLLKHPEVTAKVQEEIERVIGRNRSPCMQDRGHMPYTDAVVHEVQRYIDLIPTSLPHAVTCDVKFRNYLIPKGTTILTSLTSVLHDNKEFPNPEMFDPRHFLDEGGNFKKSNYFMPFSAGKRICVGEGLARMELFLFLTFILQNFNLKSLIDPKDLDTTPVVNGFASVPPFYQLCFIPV

## CO/N=C1\C[C@@H](CO)N(C(=O)c2ccc(-c3ccccc3C)cc2)C1 [(3E) isomer, (3E,5S)-5-(hydroxymethyl)-1-[(2′-methyl-1,1′-biphenyl-4-yl)carbonyl]pyrrolidin-3-one O-methyloxime, reference compound]
CYP2C19; 0 min
  Compound Remaining (% of compound present at t = 0 min): 100%
CYP2C19; 5 min
  Compound Remaining (% of compound present at t = 0 min): 87.6%
CYP2C19; 15 min
  Compound Remaining (% of compound present at t = 0 min): 82.7%
CYP2C19; 30 min
  Compound Remaining (% of compound present at t = 0 min): 57.1%
CYP2C19; 45 min
  Compound Remaining (% of compound present at t = 0 min): 47.4%
CYP2C19; human
  half-life at 5 μM: 0.69 h
CYP3A4; 0 min
  Compound Remaining (% of compound present at t = 0 min): 100%
CYP3A4; 5 min
  Compound Remaining (% of compound present at t = 0 min): 107%
CYP3A4; 15 min
  Compound Remaining (% of compound present at t = 0 min): 88.8%
CYP3A4; 30 min
  Compound Remaining (% of compound present at t = 0 min): 92.5%
CYP3A4; 45 min
  Compound Remaining (% of compound present at t = 0 min): 92.2%
CYP3A4; human
  half-life at 5 μM: 4.68 h
[1]; read-out: CLint, Metabolic Stability - CYP/UGT
  microsomal CLint at 3 μM: 5.38 µL/min/mg
[1]; read-out: t1/2, Metabolic Stability - CYP/UGT
  half-life at 3 μM: 4.3 h
Cytochrome P450; read-out: CLint, Metabolic Stability - CYP
  microsomal CLint at 3 μM: 6.4 µL/min/mg
Cytochrome P450; read-out: t1/2, Metabolic Stability - CYP
  half-life at 3 μM: 3.6 h
CYP2D6; 0 min
  Compound Remaining (% of compound present at t = 0 min): 100%
CYP2D6; 5 min
  Compound Remaining (% of compound present at t = 0 min): 49.3%
CYP2D6; 15 min
  Compound Remaining (% of compound present at t = 0 min): 14.1%
CYP2D6; 30 min
  Compound Remaining (% of compound present at t = 0 min): 2.43%
CYP2D6; 45 min
  Compound Remaining (% of compound present at t = 0 min): 0.845%
CYP2D6; human
  half-life at 5 μM: 5.62 min
